Data as given in patent US7888319B2, “Compositions and methods for promoting wound healing and tissue regeneration” (MUSC Foundation for Research Development, priority 2004, dated 2011).

Tested on: WB-F344 cells
Assay: Scratch injury of WB-F344 cell lines stably expressing ACT-peptide-encoding polynucleotide
Type: cell-based, rat
Conditions: stable expression with GFP, 24 hours after scratch, vs GFP-only cell line
Source text: WB-F344 cells are a transformed rat epithelial cell line derived by treatment of isolated rat liver cells with a cancer-causing agent (Tsao et al., 1984; Hayashi et al., 1997; Hayashi et al., 1998; Hayashi et al., 2001). WB-F344 cells were transfected with a cDNA expression plasmid construct and selected under antibiotic using standard protocols to generate cell lines that stably expressed an ACT-peptide-encoding-polynucleotide (SEQ ID NO:6) operably linked to a promoter sequence or a green fluorescent protein (GFP) polynucleotide operably linked to a promoter sequence as a control. The polynucleotide encoding the ACT peptide also encoded GFP. As such, expression of the ACT peptide could be assayed by standard GFP fluorescence optics on a light microscope. (a) and (b) show high magnification images of GFP fluorescence in WB-F344 cell lines expressing GFP plus the carboxy terminus ACT peptide sequence (a) or GFP alone (b). Near confluent monolayers of the WB-F344 cell lines were “scratch injured” and allowed to “heal” for 24 hours. […]
WB-F344 cells are a transformed rat epithelial cell line derived by treatment of isolated rat liver cells with a cancer-causing agent (Tsao et al., 1984; Hayashi et al., 1997; Hayashi et al., 1998; Hayashi et al., 2001). […] As such, expression of the ACT peptide could be assayed by standard GFP fluorescence optics on a light microscope. […]

aga cct cgg cct gat gac ctg gag att (DNA AGACCTCGGCCTGATGACCTGGAGATT; expressed or natural sequence) [ACT-peptide-encoding-polynucleotide, polynucleotide encoding ACT peptide plus GFP, operably linked to a promoter, stably expressed in WB-F344 cells]
repopulation of the scratch injury: inhibited repopulation of the scratch injury
